Where two headings read alike, the source gives them in different places.
Tests used:
MDA-MB-231 cells [1] = test: Cell proliferation assay (label-free live cell counting), MDA-MB-231; format: cell-based, human
Procedure: The human triple-negative breast cancer cell line MDA-MB-231 (ATCC HTB-26) (absence of estrogen and progesterone receptors, […]) and the non-cancerous breast cell line MCF-12A (ATCC CRL-10782) were purchased from ATCC (Manassas, VA, USA). MDA-MB-231 cells were cultured in DMEM-HG cell growth medium supplemented with 10% (v/v) FBS. MCF-12A cells were cultured in DMEM/F12 medium supplemented with 20 ng/mL hEGF, 100 ng/mL cholera toxin, 0.01 mg/mL bovine insulin, 500 ng/mL hydrocortisone and 5% (v/v) horse serum. Cells were cultured in monolayers in a sterile environment at 37 °C with 5% CO2 humidified atmosphere. Under these conditions, the population doubling time was 25.5 ± 0.9 h and 20.6 ± 3.1 h for MDA-MB-231 and MCF-12A cells, respectively. The cell cultures were routinely screened for mycoplasma contamination, yielding negative results.
Cells were seeded in 96-well microplates at the cell density 1.5 × 10^4 cells/cm^2 (final volume 200 µL/well) and left 24 h to attach. […] Label-free kinetic live monitoring of cell proliferation was performed using LionheartFX automated microscope (BioTek, Winooski, VT, USA) with direct image acquisition of cells in microplates at 0, 24, 48 and 72 h post-addition of the tested compounds. Acquired 4X images were processed using Gen 5 Image Analysis software (BioTek, Winooski, VT, USA) that allows for identification and counting of individual cells per image. The normalized cell growth (%) was calculated using the following formula: C(t) = [(Number of Treated Cells(t) − Number of Treated Cells(0))/(Number of Untreated Cells(t) − Number of Untreated Cells(0))] × 100, where C(t) is the percent of net cell growth over time, Number of Treated Cells(t) is the count of cells treated with drug at each time point, Number of Treated Cells(0) is the count cells treated with drug at time 0 h, Number of Untreated Cells(t) is the count of untreated (control) cells at each time point, Number of Untreated Cells(0) is the count of untreated (control) cells at time 0 h.

MDA-MB-231 cells [2] = test: Cell migration, wound healing (scratch) assay; format: cell-based, human; conditions: from AUC0-18h of wound confluence, n = 5; for logEC50 (migration of MDA-MB-231 cells): mean ± SEM
Procedure: The effect of compounds on cell migration was studied using wound healing assay (or scratch assay). Triple-negative breast cancer MDA-MB-231 cells were seeded in 24-well microplate at the cell density 12.5 × 10^4 cells/cm^2 (1 mL final volume) and left 24 h to attach and create a confluent monolayer. The cell monolayer was scratched with 200 µL pipette tip, producing a vertical straight wound in the middle of the well; growth medium was removed and wells were washed twice with growth medium to remove all detached cells. […] Wound closure was analyzed as a confluence of the initial cell-free area covered by migrating cells at the indicated time points measured with Gen 5 Image Analysis software. Confluence was calculated using the following formula: C(t) = [(Object Sum Area(t) − Object Sum Area(0))/(I(A) − Object Sum Area(0))] × 100, where C(t) is the percent wound confluence over time, Object Sum Area(t) is the area covered by cells at each time point, Object Sum Area(0) is the area covered by cells at time 0 h and I(A) is the total area of the 4X image.

MDA-MB-231 breast tumors = test: Histology, Ki-67 immunohistochemistry and TUNEL assay of xenograft tumors; format: in vivo, mice; conditions: Pd2Spm 5 mg/kg/day, cisplatin 2 mg/kg/day, versus vehicle
Procedure: For the immunohistochemical study, tissue sections were dewaxed and rehydrated. Slides were submitted to […] by immersion in 10% retrieval solution (Dako) and kept in a water bath at 100 °C for 20 min. After blocking of non-specific staining, slides were incubated with primary antibody for Ki-67 (1:50 dilution, clone MIB-1, Dako) overnight at 4 °C. Slides were then stained with Novolink Polymer Detection Systems (Leica Biosystems Inc., Buffalo Grove, IL, USA) following manufacturer’s instructions, counterstained with hematoxylin and permanently mounted. The nuclear Ki-67 staining was analyzed using Fiji’s high-throughput automatic quantitation with Andy’s Algorithm pipeline, as described elsewhere. The immunoreactivity was evaluated, counting at least 600 nuclei/field from 5 representative fields of the lesion at high magnification, avoiding necrotic areas. The ratio of Ki-67 positive nuclei per all counted nuclei was expressed as a percentage (Ki-67 proliferation index).
The paraffin-embedded tumor sections were deparaffinized, rehydrated through a graded series of ethanol and double distilled water and then stained with In Situ Cell Death Detection Kit (Roche Diagnostics GmbH, Mannheim, Germany) as per manufacturer’s instructions. Apoptosis was quantified at single-cell level by counting the number of cells positive for terminal deoxynucleotidyl transferase (TdT) dUTP nick-end labeling (TUNEL-positive cells). Briefly, tumor sections were incubated with 20 µg/mL proteinase K solution (in 10 mM Tris/HCl, pH 7.4–8) for 30 min at 37 °C. Slides were washed and stained with TUNEL reaction mixture (mixture of terminal deoxynucleotidyl transferase with labeled nucleotides) for 60 min at 37 °C in the dark followed by three washes. Slides were mounted with […] Antifade Mounting Medium with DAPI, and coverslips were sealed. At least twenty nonoverlapping high-power microscope fields of each tumor section were captured while avoiding areas with central necrosis. Fluorescence images were acquired using the LionHeart automated microscope at Ex: 520–560 nm and Em: 570–620 nm.

[3] = test system: chicken embryo chorioallantoic membrane (CAM); test: In vivo CAM assay (neovascularization); conditions: for CAM early steps of angiogenesis: number of nodes, junctions and segments / CAM later steps of angiogenesis: total length, total branching length and total segment length: 2 to 8 µM
Procedure: The chicken embryo chorioallantoic membrane (CAM) assay was used to study the effect of tested drugs on neovascularization, as described elsewhere. Briefly, fertilized chicken eggs were incubated at 37.5 °C in a humidified atmosphere with agitation. After 3 days of incubation, 2.5 mL of albumen was removed to detach developing CAM from the shell. A window in the eggshell was cut off to expose the embryo, and then, the eggshell was sealed with paraffin. Incubation of fertilized eggs continued until day 9, when the windows were unsealed and four paper disks previously sterilized and pre-treated with hydrocortisone ([…] to avoid inflammatory responses) were placed in direct contact with CAM in each egg (3 PBS-soaked disks and 1 VEGF-soaked (10 ng/mL) disk), and windows were re-sealed with paraffin. […] The remaining two disks were used as negative/vehicle (treated with PBS) and positive (treated with VEGF) controls. The eggs were further incubated two more days, and at […], the disks bound to the CAM were removed, placed in PBS and imaged using a contrast-phase microscope (Motic® AE200 inverted microscope, Spectra Services, VWR International) (with a 4X magnification) coupled to a Moticam 5 digital camera. Images were analyzed using the Angiogenesis Analyzer for Fiji.

[4] = MDA-MB-231, 24 h of incubation, n = 4
[5] = MDA-MB-231, 24 h of incubation, n = 4, read-out: IC50 in µM [95% CI]
[6] = MDA-MB-231, 48 h of incubation, n = 4
[7] = MDA-MB-231, 48 h of incubation, n = 4, read-out: IC50 in µM [95% CI]
[8] = MDA-MB-231, 72 h of incubation, n = 4
[9] = MDA-MB-231, 72 h of incubation, n = 4, read-out: IC50 in µM [95% CI]

Row | Structure (SMILES) | logIC50 ± SEM (MDA-MB-231 cells [1]; [4]) | IC50 (MDA-MB-231 cells [1]; [5]) | logIC50 ± SEM (MDA-MB-231 cells [1]; [6]) | IC50 (MDA-MB-231 cells [1]; [7]) | logIC50 ± SEM (MDA-MB-231 cells [1]; [8]) | IC50 (MDA-MB-231 cells [1]; [9]) | logEC50 (migration of MDA-MB-231 cells) (MDA-MB-231 cells [2]) | EC50 (MDA-MB-231 cells [2]) | TUNEL-positive cells in tumors (DNA damage) (MDA-MB-231 breast tumors) | mitotic count in tumors (MDA-MB-231 breast tumors) | CAM early steps of angiogenesis: number of nodes, junctions and segments [3] | CAM later steps of angiogenesis: total length, total branching length and total segment length [3] | IC50 (MDA-MB-231 cells [1]; MDA-MB-231, 24-72 h, read-out: IC50 values (range over incubation times)) | Ki-67 index of tumors (MDA-MB-231 breast tumors) | angiogenesis in CAM at single concentration ([3]; 8 µM (4.46 µg/mL))
1 | N.N.[Cl][Pt][Cl] [Cisplatin, cis-dichlorodiammine platinum(II), reference compound] | −5.459 ± 0.036 | 3.5 µM | −6.005 ± 0.027 | 1 µM | −6.043 ± 0.020 | 0.9 µM | −4.329 ± 0.130 | 46.9 µM | significant increase | mitotic count of vehicle-treated animals was significantly increased compared to cisplatin- and Pd2Spm-treated groups | decrease, in a dose-dependent manner | reduced, in a dose-dependent manner | – | – | –
2 | NCCCNCCCCNCCCN.[Cl][Pd][Cl].[Cl][Pd][Cl] [Pd2Spm, dinuclear palladium(II)-spermine chelate] | −5.081 ± 0.024 | 8.3 µM | −5.105 ± 0.022 | 7.9 µM | −5.137 ± 0.021 | 7.3 µM | −4.243 ± 0.113 | 57.2 µM | significant increase | mitotic count of vehicle-treated animals was significantly increased compared to cisplatin- and Pd2Spm-treated groups | decrease, in a dose-dependent manner | reduced, in a dose-dependent manner | 7.3 to 8.3 µM | significantly decreased | significantly inhibited angiogenesis

Source: PMC8869242 (Biomedicines, 2022)
